# In ChEMBL document CHEMBL4507285, “Data for DCP probe MRL-SYKi” (2021):
# Assays:
# [1] = target: Tyrosine-protein kinase ZAP-70 (Homo sapiens) (UniProt P43403); settings: Compound concentration 100.0 nM
# [2] = target: Mitogen-activated protein kinase kinase kinase 14 (Homo sapiens) (UniProt Q99558); settings: Compound concentration 100.0 nM
# [3] = tested on: Phosphatidylinositol 4,5-bisphosphate 3-kinase catalytic subunit alpha isoform (Homo sapiens), P42336 [H1047L]; settings: Compound concentration 100.0 nM
# [4] = target: Inhibitor of nuclear factor kappa-B kinase subunit alpha (Homo sapiens) (UniProt O15111); settings: Compound concentration 100.0 nM
# [5] = target: Protein-tyrosine kinase 2-beta (Homo sapiens) (UniProt Q14289); settings: Compound concentration 100.0 nM
# [6] = target: Dual specificity protein kinase CLK3 (Homo sapiens) (UniProt P49761); settings: Compound concentration 100.0 nM
# [7] = tested on: Proto-oncogene tyrosine-protein kinase receptor Ret (Homo sapiens), P07949 [M918T]; settings: Compound concentration 100.0 nM
# [8] = target: Casein kinase I isoform delta (Homo sapiens) (UniProt P48730); settings: Compound concentration 100.0 nM
# [9] = target: Ribosomal protein S6 kinase alpha-5 (Homo sapiens) (UniProt O75582); settings: Compound concentration 100.0 nM
# [10] = target: Mitogen-activated protein kinase kinase kinase 9 (Homo sapiens) (UniProt P80192); settings: Compound concentration 100.0 nM
# [11] = target: Serine/threonine-protein kinase Nek7 (Homo sapiens) (UniProt Q8TDX7); settings: Compound concentration 100.0 nM
# Sequence of Serine/threonine-protein kinase Nek7 (Homo sapiens) (Q8TDX7 whole entry, looked up): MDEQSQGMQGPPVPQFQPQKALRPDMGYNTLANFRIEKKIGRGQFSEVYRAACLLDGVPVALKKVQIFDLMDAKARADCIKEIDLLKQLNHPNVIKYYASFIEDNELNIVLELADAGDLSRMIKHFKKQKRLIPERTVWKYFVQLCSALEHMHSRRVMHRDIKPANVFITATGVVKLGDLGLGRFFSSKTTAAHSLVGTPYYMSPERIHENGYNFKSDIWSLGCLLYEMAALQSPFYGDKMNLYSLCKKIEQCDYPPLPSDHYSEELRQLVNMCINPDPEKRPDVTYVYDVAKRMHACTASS
# [12] = target: Ribosomal protein S6 kinase alpha-6 (Homo sapiens) (UniProt Q9UK32); settings: Compound concentration 100.0 nM
# [13] = tested on: Proto-oncogene tyrosine-protein kinase receptor Ret (Homo sapiens), P07949 [V804M]; settings: Compound concentration 100.0 nM
# [14] = tested on: Epidermal growth factor receptor (Homo sapiens), P00533 [G719C]; settings: Compound concentration 100.0 nM
# [15] = tested on: Serine/threonine-protein kinase B-raf (Homo sapiens), P15056 [V600E]; settings: Compound concentration 100.0 nM
# [16] = target: RAF proto-oncogene serine/threonine-protein kinase (Homo sapiens) (UniProt P04049); settings: Compound concentration 100.0 nM
# [17] = target: Cyclin-dependent kinase 4 (Homo sapiens) (UniProt P11802); settings: Compound concentration 100.0 nM
# [18] = target: Inhibitor of nuclear factor kappa-B kinase subunit epsilon (Homo sapiens) (UniProt Q14164); settings: Compound concentration 100.0 nM
# [19] = target: Hepatocyte growth factor receptor (Homo sapiens) (UniProt P08581); settings: Compound concentration 100.0 nM
# [20] = target: Macrophage colony-stimulating factor 1 receptor (Homo sapiens) (UniProt P07333); settings: Compound concentration 100.0 nM
# [21] = target: Non-receptor tyrosine-protein kinase TYK2 (Homo sapiens) (UniProt P29597); settings: Compound concentration 100.0 nM
# [22] = tested on: Receptor-type tyrosine-protein kinase FLT3 (Homo sapiens), P36888 [R834Q]; settings: Compound concentration 100.0 nM
# [23] = tested on: Tyrosine-protein kinase ABL1 (Homo sapiens), P00519 [F317L]; settings: Compound concentration 100.0 nM
# [24] = target: Serine/threonine-protein kinase SIK3 (Homo sapiens) (UniProt Q9Y2K2); settings: Compound concentration 100.0 nM
# [25] = target: Ribosomal protein S6 kinase alpha-2 (Homo sapiens) (UniProt Q15349); settings: Compound concentration 100.0 nM
# [26] = target: Leukocyte tyrosine kinase receptor (Homo sapiens) (UniProt P29376); settings: Compound concentration 100.0 nM
# [27] = target: Tyrosine-protein kinase Srms (Homo sapiens) (UniProt Q9H3Y6); settings: Compound concentration 100.0 nM
# [28] = target: Tyrosine-protein kinase FRK (Homo sapiens) (UniProt P42685); settings: Compound concentration 100.0 nM
# Sequence of Tyrosine-protein kinase FRK (Homo sapiens) (P42685 whole entry): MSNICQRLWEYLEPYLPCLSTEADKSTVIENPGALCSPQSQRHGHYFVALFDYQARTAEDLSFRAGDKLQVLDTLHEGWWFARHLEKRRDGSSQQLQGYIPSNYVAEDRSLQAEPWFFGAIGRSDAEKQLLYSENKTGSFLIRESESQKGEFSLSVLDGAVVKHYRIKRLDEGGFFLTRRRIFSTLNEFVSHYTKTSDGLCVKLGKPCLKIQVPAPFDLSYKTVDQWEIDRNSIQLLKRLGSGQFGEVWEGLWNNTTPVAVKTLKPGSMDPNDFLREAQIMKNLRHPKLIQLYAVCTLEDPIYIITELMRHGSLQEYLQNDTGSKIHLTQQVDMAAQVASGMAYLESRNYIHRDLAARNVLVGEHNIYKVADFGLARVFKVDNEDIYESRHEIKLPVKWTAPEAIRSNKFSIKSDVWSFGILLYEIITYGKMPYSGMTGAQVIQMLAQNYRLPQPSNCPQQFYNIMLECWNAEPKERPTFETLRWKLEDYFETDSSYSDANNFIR
# [29] = tested on: Mast/stem cell growth factor receptor Kit (Homo sapiens), P10721 [D816V]; settings: Compound concentration 100.0 nM
# [30] = target: Serine/threonine-protein kinase 38-like (Homo sapiens) (UniProt Q9Y2H1); settings: Compound concentration 100.0 nM
# Sequence of Serine/threonine-protein kinase 38-like (Homo sapiens) (Q9Y2H1 2-464 limits assumed): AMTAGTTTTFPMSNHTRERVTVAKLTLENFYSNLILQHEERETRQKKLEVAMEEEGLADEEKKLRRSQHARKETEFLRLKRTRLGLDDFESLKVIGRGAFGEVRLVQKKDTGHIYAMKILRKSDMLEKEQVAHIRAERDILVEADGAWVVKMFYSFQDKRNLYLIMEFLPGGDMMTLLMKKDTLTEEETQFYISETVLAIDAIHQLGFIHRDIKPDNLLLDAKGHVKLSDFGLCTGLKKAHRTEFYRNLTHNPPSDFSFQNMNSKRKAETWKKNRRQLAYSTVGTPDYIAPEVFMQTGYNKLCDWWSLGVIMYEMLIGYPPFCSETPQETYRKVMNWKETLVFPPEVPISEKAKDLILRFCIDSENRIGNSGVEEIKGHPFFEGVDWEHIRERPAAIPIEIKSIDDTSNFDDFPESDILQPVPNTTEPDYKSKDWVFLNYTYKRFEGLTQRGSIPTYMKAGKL
# [31] = target: ALK tyrosine kinase receptor (Homo sapiens) (UniProt Q9UM73); settings: Compound concentration 100.0 nM
# Sequence of ALK tyrosine kinase receptor (Homo sapiens) (Q9UM73 19-1620 limits assumed): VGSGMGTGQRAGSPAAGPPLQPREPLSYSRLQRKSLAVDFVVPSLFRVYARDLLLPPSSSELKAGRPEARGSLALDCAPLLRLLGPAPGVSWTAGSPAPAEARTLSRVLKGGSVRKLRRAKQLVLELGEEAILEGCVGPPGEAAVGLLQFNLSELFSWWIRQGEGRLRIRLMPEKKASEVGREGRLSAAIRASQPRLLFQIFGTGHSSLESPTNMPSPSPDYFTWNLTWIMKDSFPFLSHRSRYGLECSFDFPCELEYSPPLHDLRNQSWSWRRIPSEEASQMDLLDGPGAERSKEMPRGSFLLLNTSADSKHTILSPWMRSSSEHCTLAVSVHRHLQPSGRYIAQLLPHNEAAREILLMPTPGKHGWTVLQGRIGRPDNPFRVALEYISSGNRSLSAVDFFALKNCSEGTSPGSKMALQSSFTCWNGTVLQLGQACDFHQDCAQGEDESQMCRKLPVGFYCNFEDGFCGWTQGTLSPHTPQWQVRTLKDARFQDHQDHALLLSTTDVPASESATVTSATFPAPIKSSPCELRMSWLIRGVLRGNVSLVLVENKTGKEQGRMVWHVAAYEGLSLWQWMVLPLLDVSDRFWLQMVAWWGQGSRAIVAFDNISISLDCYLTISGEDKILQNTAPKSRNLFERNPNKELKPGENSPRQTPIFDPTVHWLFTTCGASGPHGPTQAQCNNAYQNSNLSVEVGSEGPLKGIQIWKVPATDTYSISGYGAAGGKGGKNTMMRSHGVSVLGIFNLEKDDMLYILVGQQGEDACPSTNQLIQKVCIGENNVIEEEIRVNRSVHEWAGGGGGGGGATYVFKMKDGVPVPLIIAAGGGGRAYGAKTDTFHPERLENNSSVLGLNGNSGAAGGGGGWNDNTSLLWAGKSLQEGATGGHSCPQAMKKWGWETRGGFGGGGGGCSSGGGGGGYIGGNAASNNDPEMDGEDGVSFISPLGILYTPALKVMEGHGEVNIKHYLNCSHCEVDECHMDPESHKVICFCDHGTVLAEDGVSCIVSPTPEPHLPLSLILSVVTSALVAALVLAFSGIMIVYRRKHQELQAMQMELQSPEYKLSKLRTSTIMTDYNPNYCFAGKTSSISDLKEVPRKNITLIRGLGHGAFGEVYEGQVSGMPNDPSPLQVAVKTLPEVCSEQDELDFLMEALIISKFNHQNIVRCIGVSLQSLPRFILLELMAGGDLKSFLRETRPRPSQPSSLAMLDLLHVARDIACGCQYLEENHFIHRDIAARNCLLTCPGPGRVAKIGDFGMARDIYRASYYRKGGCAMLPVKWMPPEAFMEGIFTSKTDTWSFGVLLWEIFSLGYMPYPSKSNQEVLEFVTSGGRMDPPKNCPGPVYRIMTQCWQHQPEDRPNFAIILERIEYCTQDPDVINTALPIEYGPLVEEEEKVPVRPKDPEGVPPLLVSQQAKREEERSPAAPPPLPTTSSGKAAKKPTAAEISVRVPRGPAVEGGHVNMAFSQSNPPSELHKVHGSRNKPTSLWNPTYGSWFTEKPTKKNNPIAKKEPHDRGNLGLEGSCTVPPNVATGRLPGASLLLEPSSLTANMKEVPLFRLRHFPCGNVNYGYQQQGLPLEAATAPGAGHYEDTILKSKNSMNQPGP
# [32] = target: NT-3 growth factor receptor (Homo sapiens, UniProt Q16288); settings: Compound concentration 100.0 nM
# [33] = target: GABA-A receptor; anion channel (Rattus norvegicus) (UniProt O09028+P15431+P18506+P18508+P19969+P20236+P23574+P23576+P28471+P28473+P30191+P62813+P63079+P63138+Q91ZM7+Q9ES14); settings: Compound concentration 10.0 uM
# [34] = target: G protein-coupled receptor kinase 3 (Homo sapiens) (UniProt P35626); settings: Compound concentration 100.0 nM
# [35] = tested on: Mast/stem cell growth factor receptor Kit (Homo sapiens), P10721 [V559D,T670I]; settings: Compound concentration 100.0 nM
# [36] = target: Mitogen-activated protein kinase kinase kinase kinase 4 (Homo sapiens) (UniProt O95819); settings: Compound concentration 100.0 nM
# [37] = target: Epidermal growth factor receptor (Homo sapiens) (UniProt P00533); settings: Compound concentration 100.0 nM
# [38] = target: Atypical kinase COQ8A, mitochondrial (Homo sapiens) (UniProt Q8NI60); settings: Compound concentration 100.0 nM
# [39] = target: Mitotic checkpoint serine/threonine-protein kinase BUB1 (Homo sapiens) (UniProt O43683); settings: Compound concentration 100.0 nM
# [40] = target: Beta-3 adrenergic receptor (Homo sapiens) (UniProt P13945); settings: Compound concentration 10.0 uM
# Sequence of Beta-3 adrenergic receptor (Homo sapiens) (P13945 whole entry, looked up): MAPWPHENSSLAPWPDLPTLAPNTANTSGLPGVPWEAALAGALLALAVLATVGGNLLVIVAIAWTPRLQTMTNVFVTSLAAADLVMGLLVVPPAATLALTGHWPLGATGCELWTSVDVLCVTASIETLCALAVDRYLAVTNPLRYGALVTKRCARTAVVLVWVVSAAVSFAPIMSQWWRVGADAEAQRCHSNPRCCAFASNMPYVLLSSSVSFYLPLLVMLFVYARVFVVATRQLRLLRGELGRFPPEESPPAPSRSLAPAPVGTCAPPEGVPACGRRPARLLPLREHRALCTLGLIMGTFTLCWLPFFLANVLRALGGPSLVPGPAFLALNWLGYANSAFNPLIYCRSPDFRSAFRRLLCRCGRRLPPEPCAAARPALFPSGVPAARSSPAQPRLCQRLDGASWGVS
# [41] = target: Calcium/calmodulin-dependent protein kinase type 1 (Homo sapiens) (UniProt Q14012); settings: Compound concentration 100.0 nM
# Sequence of Calcium/calmodulin-dependent protein kinase type 1 (Homo sapiens) (Q14012 whole entry, looked up): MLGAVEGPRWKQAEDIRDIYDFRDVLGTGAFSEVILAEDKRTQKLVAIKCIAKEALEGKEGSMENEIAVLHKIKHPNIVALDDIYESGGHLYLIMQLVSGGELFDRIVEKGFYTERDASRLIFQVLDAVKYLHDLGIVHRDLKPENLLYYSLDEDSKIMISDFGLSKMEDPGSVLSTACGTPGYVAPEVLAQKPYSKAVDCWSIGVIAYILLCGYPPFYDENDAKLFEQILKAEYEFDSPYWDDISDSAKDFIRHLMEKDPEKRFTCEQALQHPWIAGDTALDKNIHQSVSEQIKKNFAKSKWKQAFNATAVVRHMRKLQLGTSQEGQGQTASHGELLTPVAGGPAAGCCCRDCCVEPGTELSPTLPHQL
# [42] = target: Myotonin-protein kinase (Homo sapiens) (UniProt Q09013); settings: Compound concentration 100.0 nM
# Sequence of Myotonin-protein kinase (Homo sapiens) (Q09013 whole entry): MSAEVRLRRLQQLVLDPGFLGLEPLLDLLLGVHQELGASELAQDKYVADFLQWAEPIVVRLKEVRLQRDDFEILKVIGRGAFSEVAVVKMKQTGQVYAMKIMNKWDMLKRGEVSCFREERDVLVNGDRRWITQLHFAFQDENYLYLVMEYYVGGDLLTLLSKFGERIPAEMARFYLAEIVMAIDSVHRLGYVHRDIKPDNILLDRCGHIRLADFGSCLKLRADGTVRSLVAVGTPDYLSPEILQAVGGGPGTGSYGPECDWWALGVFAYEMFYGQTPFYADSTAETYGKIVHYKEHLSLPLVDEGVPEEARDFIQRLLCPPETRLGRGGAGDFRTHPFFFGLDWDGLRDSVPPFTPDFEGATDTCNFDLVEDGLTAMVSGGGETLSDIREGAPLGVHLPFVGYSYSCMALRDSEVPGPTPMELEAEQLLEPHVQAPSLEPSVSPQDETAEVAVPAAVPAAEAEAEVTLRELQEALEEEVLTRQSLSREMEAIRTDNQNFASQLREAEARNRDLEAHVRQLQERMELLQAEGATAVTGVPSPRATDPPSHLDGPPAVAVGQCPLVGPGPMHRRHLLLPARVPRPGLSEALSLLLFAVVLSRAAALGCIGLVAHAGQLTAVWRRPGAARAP
# [43] = target: Mitogen-activated protein kinase 3 (Homo sapiens) (UniProt P27361); settings: Compound concentration 100.0 nM
# Sequence of Tyrosine-protein kinase ZAP-70 (Homo sapiens) (P43403 whole entry): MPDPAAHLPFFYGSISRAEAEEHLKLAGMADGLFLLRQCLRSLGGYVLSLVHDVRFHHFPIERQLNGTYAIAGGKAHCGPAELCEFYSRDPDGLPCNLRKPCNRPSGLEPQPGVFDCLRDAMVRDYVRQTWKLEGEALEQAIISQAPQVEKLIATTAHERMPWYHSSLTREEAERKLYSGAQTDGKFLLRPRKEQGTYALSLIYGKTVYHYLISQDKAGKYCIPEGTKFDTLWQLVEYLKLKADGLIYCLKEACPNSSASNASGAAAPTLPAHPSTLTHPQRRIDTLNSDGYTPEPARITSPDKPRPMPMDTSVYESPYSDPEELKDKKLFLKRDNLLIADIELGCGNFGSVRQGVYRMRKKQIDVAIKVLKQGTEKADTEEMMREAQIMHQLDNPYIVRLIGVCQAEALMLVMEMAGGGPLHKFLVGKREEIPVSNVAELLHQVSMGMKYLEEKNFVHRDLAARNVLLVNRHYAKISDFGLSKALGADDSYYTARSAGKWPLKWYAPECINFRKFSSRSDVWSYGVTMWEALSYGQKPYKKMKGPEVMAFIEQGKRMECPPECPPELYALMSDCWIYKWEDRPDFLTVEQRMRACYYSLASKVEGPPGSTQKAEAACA
structure (smiles),measurement,setting,value
Cc1ccc(-c2cnc([C@@]3(O)CC[C@H](C(=O)O)C(C)(C)C3)s2)cc1Nc1cccc(C(F)(F)F)n1 [MRL-SYKi-NC],residual activity,[1],88.5%
same,residual activity,[2],100%
same,residual activity,[3],94.8%
same,residual activity,[4],69.7%
same,residual activity,[5],72.5%
same,residual activity,[6],76%
same,residual activity,[7],100%
same,residual activity,[8],92.5%
same,residual activity,[9],100%
same,residual activity,[10],100%
same,residual activity,[11],75.7%
same,residual activity,[12],90.8%
same,residual activity,[13],100%
same,residual activity,[14],100%
same,residual activity,[15],100%
same,residual activity,[16],100%
same,residual activity,[17],100%
same,residual activity,[18],73.8%
same,residual activity,[19],100%
same,residual activity,[20],100%
same,residual activity,[21],100%
same,residual activity,[22],70.5%
same,residual activity,[23],99.1%
same,residual activity,[24],100%
same,residual activity,[25],100%
same,residual activity,[26],75.8%
same,residual activity,[27],100%
same,residual activity,[28],100%
same,residual activity,[29],100%
same,residual activity,[30],100%
same,residual activity,[31],100%
same,residual activity,[32],80%
same,inhibition,[33],20.3%
same,residual activity,[34],98.3%
same,residual activity,[35],99.7%
same,residual activity,[36],100%
same,residual activity,[37],69.4%
same,residual activity,[38],100%
same,residual activity,[39],100%
same,inhibition,[40],-6.54%
same,residual activity,[41],75.3%
same,residual activity,[42],93.7%
same,residual activity,[43],100%
Cc1cc(Nc2nccc(C)n2)cc(-c2cnc([C@@]3(O)CC[C@H](C(=O)O)C(C)(C)C3)s2)c1 [MRL-SYKi],residual activity,[1],44.9%
same,residual activity,[2],89%
same,residual activity,[3],81.7%
same,residual activity,[4],100%
same,residual activity,[5],100%
same,residual activity,[6],100%
same,residual activity,[7],95.5%
same,residual activity,[8],100%
same,residual activity,[9],100%
same,residual activity,[10],90.4%
same,residual activity,[11],92.9%
same,residual activity,[12],100%
same,residual activity,[13],81.3%
same,residual activity,[14],100%
same,residual activity,[15],100%
same,residual activity,[16],100%
same,residual activity,[17],76.9%
same,residual activity,[18],100%
same,residual activity,[19],100%
same,residual activity,[20],100%
same,residual activity,[21],68.6%
same,residual activity,[22],96.3%
same,residual activity,[23],100%
same,residual activity,[24],100%
same,residual activity,[25],86%
same,residual activity,[26],100%
same,residual activity,[27],81.2%
same,residual activity,[28],100%
same,residual activity,[29],100%
same,residual activity,[30],100%
same,residual activity,[31],93.8%
same,residual activity,[32],82.6%
same,inhibition,[33],-2.68%
same,residual activity,[34],73.7%
same,residual activity,[35],83.9%
same,residual activity,[36],100%
same,residual activity,[37],100%
same,residual activity,[38],100%
same,residual activity,[39],100%
same,inhibition,[40],3.43%
same,residual activity,[41],99.3%
same,residual activity,[42],99.8%
same,residual activity,[43],98.9%
